Test results as given in patent publication US6355633B1, “Aryl sulfonic acids and derivatives as FSH antagonists” (American Home Products Corporation, priority 1999, dated 2002).

Target: T1, FSH receptor (Homo sapiens, UniProt P23945)
T1 sequence (P23945 18-695): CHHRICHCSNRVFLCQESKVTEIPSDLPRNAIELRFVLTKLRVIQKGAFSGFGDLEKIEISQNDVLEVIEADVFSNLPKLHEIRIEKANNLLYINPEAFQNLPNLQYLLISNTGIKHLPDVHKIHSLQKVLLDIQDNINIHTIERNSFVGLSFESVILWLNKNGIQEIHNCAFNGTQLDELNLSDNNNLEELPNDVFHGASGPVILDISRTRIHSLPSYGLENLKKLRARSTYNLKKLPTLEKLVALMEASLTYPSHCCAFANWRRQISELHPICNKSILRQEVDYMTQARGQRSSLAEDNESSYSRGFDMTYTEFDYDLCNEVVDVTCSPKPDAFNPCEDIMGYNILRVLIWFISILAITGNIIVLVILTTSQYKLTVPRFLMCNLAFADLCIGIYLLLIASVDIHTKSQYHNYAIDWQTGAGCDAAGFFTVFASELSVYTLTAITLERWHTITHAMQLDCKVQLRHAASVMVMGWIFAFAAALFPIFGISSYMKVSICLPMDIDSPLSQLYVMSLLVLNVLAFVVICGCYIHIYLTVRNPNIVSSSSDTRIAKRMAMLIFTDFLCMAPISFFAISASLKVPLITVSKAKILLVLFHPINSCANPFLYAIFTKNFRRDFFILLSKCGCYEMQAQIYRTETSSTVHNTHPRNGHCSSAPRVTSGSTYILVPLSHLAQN
Test: FSH Receptor Radioligand Membrane Binding Standard Pharmacological Test Procedure
Design: expressed in transfected cells
Settings: [125I]FSH binding to membranes of CHO cells stably transfected with the human FSH receptor
Procedure: FSH Receptor Radioligand Membrane Binding Standard Pharmacological Test Procedure
Membrane Source: Chinese hamster ovarian cells stably transfected with the human FSH receptor were cultured (Ultra CHO medium containing 1% fetal bovine serum and 200 μg/mL G418) in and harvested. Cells were collected by centrifugation and resulting cell pellets were frozen and stored at −70° C.
Membrane Receptor Preparation: Frozen cell pellets were weighed and resuspended in binding buffer to a final concentration of 30 mg wet weight/mL. Cell suspension for each pellet was homogenized using a Tempest homogenizer (setting=1; 5 strokes; VirTis, Gardiner, N.Y.). Cell homogenates were pooled and 35 mL aliquots were transferred to 50-mL polypropylene copolymer centrifuge tubes (Nalgene cat. #3110-0500). Tubes were spun at 12,000 rpm (SS34 rotor) for 12 min at 4° C. Resulting supernatant fractions were discarded and pellets were stored at −70° C. until use. On the day of the procedure, 35 mL binding buffer was added to each tube (35 mL membrane suspension was sufficient for three 96-well plates). The membrane pellet was dispersed by trituration using a pipet. The resulting suspension wass homogenized using a Tempest homogenizer (3 strokes at setting=1).
Receptor Binding Test procedure: Membrane homogenate (100 μl) was added to each well of a 96-well microtiter plate (Falcon # 3077). All reactions were tested in triplicate. Test compound solutions (50 μl) were added to the designated wells. Total bound counts were determined by adding 50 μl binding buffer containing 4% DMSO to the designated wells. […] Plates were pre-incubated for 15 min at room temperature on shaking platform (setting=3). After preincubation [^125I]FSH (50 μl) was added to each well and plates were incubated for 2 h at room temperature on shaking platform (setting=3). The reaction was terminated by transfer of the membrane preparation to glass fiber filters (Blue Mat #11740; 102×256 mm; Skatron Instruments, Sterling, Va.) that had been pretreated with 1% BSA in wash buffer for at least 30 min, but not longer than 1 h using a 96-well microtiter vacuum harvester (Skatron Instruments). The membrane preparation was washed with 5 cycles of ice-cold wash buffer (200 μl/well/cycle) followed by a pulse wash of 3 cycles (100 μl/well/cycle). The total wash volume per well was 1.3 mL. The filters were dried by a 10 sec aspiration. Disks corresponding to each well of the microtiter plate were punched out of the filter mat into 12×75 mm polypropylene tubes. The radioactivity present on each of the disks was measured using a gamma counter.
An FSH dose response curve (0.001, 0.01, 0.1, 1, 10, and 100 nM) was generated for each binding procedure to monitor procedure to procedrue variability.
FSH Receptor Radioligand Membrane Binding Procedure Buffers and Reagents
Binding buffer is prepared in 11 volumes containing Trizma-HCl, MgCl2, CaCl2 and sodium azide, the pH was adjusted to 7.2 with NaOH, and stored at 4° C. until use. BSA was weighed out on the day of the procedure and added to the amount of buffer required for the procedure (usually 150 mL). The protease inhibitors were prepared as 1 mg/mL stocks (aprotinin, leupeptin, and phosphoramidon were prepared in binding buffer without BSA and protease inhibitors; pepstatin and PMSF were prepared in methanol), stored in 1 mL aliquots at −70° C., and added to the binding buffer on the day of the procedure.
Wash buffer was prepared containing Trizma-HCl, MgCl2 and EDTA, the pH was adjusted to 7.2 with NaOH, and stored at 4° C.
Filter Soak Buffer (pH 7.2)
BSA was weighed out on the day of the procedure and added to 300 mL of wash buffer. The filter soak buffer was used for two procedures before being discarded.
A portion of the stock solution was diluted in binding buffer to a concentration of 200 pM.
FSH Solution for Determining Non-specific Binding: Purified human FSH was prepared as a 100 μM solution in binding buffer without protease inhibitors. […]

`COCCNc1ccc(C(=O)Nc2ccc(/C=C/c3ccc(NC(=O)c4ccc(NCCOC)c(S(=O)(=O)N5CCOCC5)c4)cc3S(=O)(=O)O)c(S(=O)(=O)O)c2)cc1S(=O)(=O)N1CCOCC1` [Example 30l, 2,2′-[(E)-1,2-Ethenediyl]bis[5-[[4-[(2-methoxyethyl)amino]-3-(4-morpholinylsulfonyl)benzoyl]amino]benzenesulfonic Acid]] and `COCCSc1ccc(C(=O)Nc2ccc(/C=C/c3ccc(NC(=O)c4ccc(SCCOC)c(S(=O)(=O)N5CCOCC5)c4)cc3S(=O)(=O)O)c(S(=O)(=O)O)c2)cc1S(=O)(=O)N1CCOCC1` [Example 32l] are within 1.5-fold of each other in IC50: 3.9 µM for the first, 4.1 µM for the second.

Going from `O=C(Nc1ccc(/C=C/c2ccc(NC(=O)c3ccc(OCc4ccco4)c(S(=O)(=O)N4CCOCC4)c3)cc2S(=O)(=O)O)c(S(=O)(=O)O)c1)c1ccc(OCc2ccco2)c(S(=O)(=O)N2CCOCC2)c1` [Example 30u, 2,2′-[(E)-1,2-Ethenediyl]bis[5-[[4-(2-furanylmethoxy)-3-(4-morpholinylsulfony)benzoyl]amino]benzenesulfonic Acid]] to `CN(C)c1ccc(C(=O)Nc2ccc(/C=C/c3ccc(NC(=O)c4ccc(N(C)C)c(S(=O)(=O)N5CCOCC5)c4)cc3S(=O)(=O)O)c(S(=O)(=O)O)c2)cc1S(=O)(=O)N1CCOCC1` [Example 32n, 2,2′-[(E)-1,2-Ethenediyl]bis[5-[[4-(dimethylamino)-3-(4-morpholinylsulfonyl)benzoyl]amino]benzenesulfonic Acid]], the IC50 falls from 10 µM to 4.8 µM (2.1-fold). The second is the more potent here.

Compared with `COC(=O)CS(=O)(=O)c1ccc(C(=O)Nc2ccc(C=Cc3ccc(NC(=O)c4ccc(S(=O)(=O)CC(=O)OC)cc4)cc3S(=O)(=O)O)c(S(=O)(=O)O)c2)cc1` [Example 32c, [4-(4-{2-[4-(4-Methoxycarbonylmethanesulfonyl-benzoylamino)-2-sulfo-phenyl]-vinyl}-3-sulfo-phenylcarbomoyl)-benzenesulfonyl]-acetic Acid, Methyl Ester], `O=C(O)CS(=O)(=O)c1ccc(C(=O)Nc2ccc(C=Cc3ccc(NC(=O)c4ccc(S(=O)(=O)CC(=O)O)cc4)cc3S(=O)(=O)O)c(S(=O)(=O)O)c2)cc1` [Example 36a, [4-(4-{2-[4-(4-Carboxymethanesulfonyl-benzoylamino)-2-sulfo-phenyl]-vinyl}-3-sulfo-phenylcarbamoyl)-benzenesulfonyl]-acetic Acid] is 2.3-fold higher in IC50: 6.9 µM for the first, 16 µM for the second. The first is the more potent here.

Going from `COC(=O)CS(=O)(=O)c1cccc(C(=O)Nc2ccc(C=Cc3ccc(NC(=O)c4cccc(S(=O)(=O)CC(=O)OC)c4)cc3S(=O)(=O)O)c(S(=O)(=O)O)c2)c1` [Example 32d, [3-(4-{2-[4-(3-Methoxycarbonylmethanesulfonyl-benzoylamino)-2-sulfo-phenyl]-vinyl}-3-sulfo-phenylcarbomoyl)-benzenesulfonyl]-acetic Acid, Methyl Ester] to `O=C(Nc1ccc(/C=C/c2ccc(NC(=O)c3cccc(S(=O)(=O)N4CCOCC4)c3)cc2S(=O)(=O)O)c(S(=O)(=O)O)c1)c1cccc(S(=O)(=O)N2CCOCC2)c1` [Example 33a, 2,2′-[(E)-1,2-Ethenediyl]bis[5-[[3-(4-morpholinylsulfonyl)benzoyl]amino]benzenesulfonic Acid]], the IC50 falls from 12.5 µM to 6.9 µM (1.8-fold). The second is the more potent here.

`CS(=O)(=O)Cc1ccc(C(=O)Nc2ccc(/C=C/c3ccc(NC(=O)c4ccc(CS(C)(=O)=O)cc4)cc3S(=O)(=O)O)c(S(=O)(=O)O)c2)cc1` [Example 32g, 2,2′-[(E)-1,2-Ethenediyl]bis[5-[[4-[(methylsulfonyl)methyl]benzoyl]amino]benzenesulfonic Acid]] and `CS(=O)(=O)c1ccc(C(=O)Nc2ccc(/C=C/c3ccc(NC(=O)c4ccc(S(C)(=O)=O)c(N)c4)cc3S(=O)(=O)O)c(S(=O)(=O)O)c2)cc1N` [Example 35, 2,2′-[(E)-1,2-Ethenediyl]bis[5-[[3-amino-4-(methylsulfonyl)benzoyl]amino]benzenesulfonic Acid]] are within 1.5-fold of each other in IC50: 5.3 µM for the first, 4.1 µM for the second.

Going from `O=C(Nc1ccc(/C=C/c2ccc(NC(=O)c3ccc(N4CCOCC4)c(S(=O)(=O)N4CCOCC4)c3)cc2S(=O)(=O)O)c(S(=O)(=O)O)c1)c1ccc(N2CCOCC2)c(S(=O)(=O)N2CCOCC2)c1` [Example 32k, 2,2′-[(E)-1,2-Ethenediyl]bis[5-[[4-(4-morpholinyl)-3-(4-morholinylsulfonyl)benzoyl]amino]benzenesulfonic Acid]] to `COC(=O)CSc1ccc(C(=O)Nc2ccc(/C=C/c3ccc(NC(=O)c4ccc(SCC(=O)OC)c(S(=O)(=O)N5CCOCC5)c4)cc3S(=O)(=O)O)c(S(=O)(=O)O)c2)cc1S(=O)(=O)N1CCOCC1` [Example 32p, [4-[4-(2-{4-[4-Methoxycarbonylmethanesulfanyl-3-(morpholine-4-sulfonyl)-benzoylamino]-2-sulfo-phenyl}-(E)-vinyl)-3-sulfo-phenylcarbamoyl]-2-(morpholine-4-sulfonyl)-phenylsulfanyl]-acetic Acid, Methyl Ester], the IC50 rises from 7 µM to 15 µM (2.1-fold). The first is the more potent here.

Going from `COCCN(CCOC)c1ccc(C(=O)Nc2ccc(/C=C/c3ccc(NC(=O)c4ccc(N(CCOC)CCOC)c(S(=O)(=O)N5CCOCC5)c4)cc3S(=O)(=O)O)c(S(=O)(=O)O)c2)cc1S(=O)(=O)N1CCOCC1` [Example 32m, 2,2′-[(E)-1,2-Ethenediyl]bis[5-[[4-[bis(2-methoxyethyl)amino]-3-(4-morpholinylsulfonyl)benzoyl]amino]benzenesulfonic Acid]] to `COc1ccc(C(=O)Nc2ccc(-c3ccc(NC(=O)c4ccc(OC)c(S(=O)(=O)N5CCOCC5)c4)cc3S(=O)(=O)O)c(S(=O)(=O)O)c2)cc1S(=O)(=O)N1CCOCC1` [Example 33g, 4,4′-Bis[4-methoxy-3-(morpholine-4-sulfonyl)benzoylamino]biphenyl-2,2′-(bis)sulfonic Acid], the IC50 rises from 4.9 µM to 20 µM (4.1-fold).

Going from `O=C(Nc1ccc(CCc2ccc(NC(=O)c3ccc(CC4CCCO4)c(S(=O)(=O)N4CCOCC4)c3)cc2S(=O)(=O)O)c(S(=O)(=O)O)c1)c1ccc(CC2CCCO2)c(S(=O)(=O)N2CCOCC2)c1` (stereo not shown) [Example 32q, 2,2′-(1,2-Ethanediyl)bis[5-[[4-(tetrahydro-2-furanmethyl)-3-(4-morpholinylsulfonyl)benzoyl]amino]benzenesulfonic Acid]] to `O=C(Nc1ccc(/C=C/c2ccc(NC(=O)c3cccc(CN4CCOCC4)c3)cc2S(=O)(=O)O)c(S(=O)(=O)O)c1)c1cccc(CN2CCOCC2)c1` [Example 33b, 2,2′-[(E)-1,2-Ethenediyl]bis[5-[[3-(4-morpholinylmethyl)benzoyl]amino]benzenesulfonic Acid]], the IC50 rises from 2.4 µM to 4.5 µM (1.9-fold).
